The source of these data is patent US20230357064A1, “ENZYME BOOSTER TECHNOLOGY FOR ADVANCED DECONTAMINATION OF PETROLEUM HYDROCARBONS” (priority 2022, published 2023).

In brackets after ≈: the same amount, converted by molar mass.

The data set is described as follows: physchem. To be noted: for solubility: 15 °C, aqueous buffer. As to the method: It is very important to control the freely dissolved PAH concentration and keep it unchanged throughout the experiment by equilibrium partitioning from the silicone. […] During the loading of PAHs, individual PAHs were dissolved in methanol (loading solvent) to saturation level. To create the PAHs mixture, the concentration in the loading solution was calculated using partitioning coefficients for each PAH from Gilbert et. al. (2015).^39 Then, cleaned and dried O-rings were added to 50 mL volumes of loading solution kept at 15±1° C. A criterion for successful application of the passive dosing system was ensuring the mass of PAHs dissolved into methanol was much greater than that partitioned into the silicon O-ring which in turn was greater than that partitioned into the MSM^37. After 24, 72 and 128 h, O-ring was removed from each loading batch, and they were transferred into MSM to measure O-ring (Crest) and freely dissolved concentration of each PAH (Cfree) at 0.33, 0.66, 1.33, 2.66, 5.33, 12, 24,48, and 72 h. The partition coefficient between different phases (KMethanol:Oring and KOring:MSM) were obtained using the measured Ctest,initial and Cfree, initial. The obtained partitioning coefficient (KOring:MSM) was applied to calculate the required O-ring volume to avoid depletion (<5%) using the following Equation: […]
With a 5 mL MSM and partitioning coefficients from Table 10, the O-ring volume needed for each PAH and PAH mixture were determined. The initial concentrations of freely dissolved PAHs (Cfree initial) and O-ring concentrations (Ctest) in medium samples were calculated via the approach published by Butler et. al (2013).^37 Finally, for the determination of the losses, freely dissolved concentrations of PAHs were directly measured in medium samples to compare with calculated Cfree initial.
Two controls were included to study biodegradation versus dissolved concentrations. The first control contained 5 mL of strain inoculating suspension in passive doing vials with O-rings to account for losses through volatilization. The second control contained 5 mL of MSM without any strain in passive dosing vials in the presence of O-ring loaded with PAHs to account for losses through […].

The solubility is the concentration that dissolves in the medium under given conditions. High values mean a readily soluble substance, low ones a poorly soluble substance. In the case of `c1ccc2ccccc2c1` [Naphthalene], the “Cfree (dissolved concentration measured in MSM)” value stood at 17.73 mg/L, the “Cfree initial (freely dissolved concentration)” value (from here on “Cfree initial”) was determined as 18.31 mg/L, the “Ctest initial (O-ring concentration)” value came out at 97.8 mg/L and the losses through volatilization is recorded as 19%. The “time after which water concentration decreased due to volatility” value is “about 4 h” and the solubility was 20.5 µg/mL (≈ 160 µM).

Turning to `c1ccc2c(c1)ccc1ccccc12` [Phenanthrene], the “Cfree (dissolved concentration measured in MSM)” value was 0.91 mg/L, the “Cfree initial” value is given as 1.01 mg/L, the “Ctest initial (O-ring concentration)” value was found to be 48.6 mg/L and the losses through volatilization came out at 0%. This molecule also had a solubility of 1.04 µg/mL (≈ 5.84 µM).

`c1ccc2cc3ccccc3cc2c1` [Anthracene] had a solubility of 3.11 µg/mL (≈ 17.4 µM). For the same molecule, where the note is “MSM”, the “Cfree (dissolved concentration measured in MSM)” value is given as 2.66 mg/L and the “Cfree initial” value amounted to 2.98 mg/L. Where the note is “control 1, passive dosing vials”, this molecule yielded a losses through volatilization of 4%. Further, under “silicone O-ring”, the “Ctest initial (O-ring concentration)” value amounted to 94.1 mg/L.
